“And” between values parts separate entries of the source, which are not always exact repeats. Equal entries are not always repeated.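 96-well plates; 48 h exposure; 5 concentrations. Endpoints by linear interpolation between flanking doses. Not reached: highest tested concentration assigned. Here, GI50 denotes the concentration required for 50% inhibition of growth. Definition used: TGI = concentration required for complete inhibition of growth.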
Key:
Experiment in all cases: DTP human tumour cell line panel, 48 h
[1] = test system: MOLT-4 leukemia
[2] = test system: SNB-19 CNS
[3] = test system: A549 NSCLC
[4] = test system: U251 CNS
[5] = test system: COLO 205 colon
[6] = test system: NCI-H460 lung
[7] = test system: OVCAR-5 ovarian
[8] = test system: OVCAR-3 ovarian
[9] = test system: HCT-15 colon
[10] = test system: SW-620 colon
[11] = test system: RXF 393 renal
[12] = test system: TK-10 renal
[13] = test system: SR leukemia
[14] = test system: MDA-MB-435
[15] = test system: MDA-N

Row | Compound | TGI [1] [µM] | TGI [2] [µM] | TGI [3] [µM] | TGI [4] [µM] | TGI [5] | TGI [6] [µM] | TGI [7] [µM] | TGI [8] [µM] | TGI [9] [µM] | TGI [10] [µM] | TGI [11] [µM] | TGI [12] [µM] | TGI [13] [µM] | TGI [14] [µM] | TGI [15] [µM] | GI50 [1] [µM] | GI50 [11] | GI50 [2] | GI50 [4] | GI50 [6]
1 | C=CCCCCCCCCC(=O)O | 265 | 362 | 214 | 242 | 197 µM | 191 | 351 | 176 | 192 | 260 | 207 | – | – | – | – | – | – | – | – | –
2 | N#Cc1ccc(C2NN=CC23C(=O)c2ccccc2OC3c2ccccc2)cc1 (stereo not given) | > 100 | > 100 | > 100 | 55.7 | 38 µM | > 100 | > 100 | > 100 | > 100 | > 100 | > 100 | 96.3 | > 100 | > 100 | – | – | – | – | – | –
3 | O=Nc1c(O)cc(Nc2cccnc2)c2ccccc12 | 41.6 | 8.39 | > 100 | > 100 | 42.5 µM | > 100 | > 100 | 11.8 | 64.1 | 45.5 | > 100 | > 100 | – | > 100 | 76.6 | – | – | – | – | –
4 | CCCNC(=O)N(C)C(=O)N1N=C(c2ccccc2)C1c1ccccc1 (stereo not given) | > 100 | > 100 | > 100 | > 100 | > 100 µM | – | – | > 100 | > 100 | > 100 | > 100 | > 100 | – | > 100 | > 100 | – | – | – | – | –
5 | CCCCOC(=O)c1cc(C(=CCC[C@H]2CC[C@@]3(C)[C@@H](CC[C@@H]4[C@@H]3CC[C@]3(C)[C@@H](C(C)CCCC(C)C)CC[C@@H]43)C2)c2cc(Cl)c(O)c(C(=O)OCCCC)c2)cc(Cl)c1O (stereo not given in full) | > 5 | > 50 | – | > 50 | > 50 µM | > 50 | – | > 50 | > 50 | > 50 | – | – | – | > 50 | > 50 | – | – | – | – | –
6 | O=c1c2c(c1=O)-c1ccccc1CN2 | > 100 | > 100 | > 100 | > 100 | > 100 µM | > 100 | > 100 | > 100 | > 100 | > 100 | > 100 | > 100 | – | – | – | – | – | – | – | –
7 | Cc1ccc(-c2cc(-c3ccco3)c(C#N)c(=O)n2C2OC(CO)C(O)C(O)C2O)cc1 (stereo not given) | > 100 | > 100 | – | > 100 | > 100 µM | > 100 | > 100 | > 100 | > 100 | > 100 | > 100 | > 100 | > 100 | – | – | – | – | – | – | –
8 | CC[C@@]1(CCC(=O)NCCc2c[nH]c3ccccc23)CCC(=O)N2CCc3c([nH]c4ccccc34)[C@H]21 | 34.4 | > 100 | > 100 | > 100 | > 100 µM | > 100 | > 100 | > 100 | > 100 | > 100 | 33.3 | > 100 | – | 47.1 | > 100 | – | – | – | – | –
9 | COC(=O)C1=C(CCC[C@H](C)O[Si](C)(C)C(C)(C)C)NC(=O)N2[C@@H](CCO)CC[C@H]12 | > 100 | 29 | 25.6 | 29.6 | 34 µM | 47.4 | 33.7 | 27.9 | 28.9 | 42.5 | 27.5 | 35 | – | 39.7 | – | – | – | – | – | –
10 | COc1ccc(-c2cc(=O)c3c(O)cc(O)cc3o2)c(OC)c1OC | – | > 100 | > 100 | – | > 100 µM | – | > 100 | > 100 | – | > 100 | > 100 | > 100 | – | – | – | – | – | – | – | –
11 | CCOC(=O)C1(Br)S(=O)(=O)OCCOS1(=O)=O | > 100 | > 100 | > 100 | > 100 | > 100 µM | > 100 | > 100 | > 100 | > 100 | > 100 | > 100 | > 100 | > 100 | – | – | – | – | – | – | –
12 | O=c1c([OH2+])c(-c2ccc(O)cc2[O-])oc2cc(O)cc([O-])c12.O=c1c([OH2+])c(-c2ccc(O)cc2[O-])oc2cc(O)cc([O-])c12.[Ti+4] | > 100 | > 100 | > 100 | – | > 100 µM | > 100 | > 100 | > 100 | > 100 | > 100 | > 100 | > 100 | – | – | – | > 100 | > 100 µM | – | – | –
13 | O=c1c2cc(I)ccc2nc(-c2cccs2)n1/N=C/c1ccccc1 | – | > 100 | > 100 | > 100 | > 100 µM | > 100 | > 100 | > 100 | > 100 | > 100 | > 100 | > 100 | > 100 | > 100 | – | – | – | – | – | –
14 | CCCNC(=O)N1CC(CN2CCN(c3ccccc3)CC2)O/C1=N/C(=O)Nc1ccccc1 (stereo not given) | > 100 | > 100 | > 100 | > 100 | 74.1 µM | > 100 | > 100 | – | – | > 100 | > 100 | > 100 | – | > 100 | > 100 | – | – | – | – | –
15 | COc1cc2c[n+](C)c3c4cc(OC)c(OC)cc4ccc3c2cc1OC | > 100 | > 100 | > 100 | > 100 | 42.8 µM and 39.9 µM | > 100 | > 100 | > 100 | > 100 | > 100 | > 100 | > 100 | – | > 100 | – | – | > 100 µM and 28.5 µM | 80 µM and 13.5 µM | 14.3 µM and 7.05 µM | > 100 µM and 49.8 µM
16 | CC(=O)OCC1OC(n2nc(Cc3ccccc3)c(=S)[nH]c2=S)C(OC(C)=O)C(OC(C)=O)C1OC(C)=O (stereo not given) | > 100 | 78.8 | > 100 | 73.4 | > 100 µM | > 100 | > 100 | 41.2 | 40.5 | > 100 | 44.6 | > 100 | > 100 | 36.7 | – | – | – | – | – | –
17 | COC(=O)C1C=CCON2CCc3c(n(S(=O)(=O)c4ccccc4)c4ccccc34)C12 (stereo not given) | > 71 | > 77.7 | > 100 | > 42.1 | > 68.9 µM | > 92.3 | > 100 | > 100 | > 72.9 | > 34.3 | > 100 | > 100 | > 100 | – | – | – | – | – | – | –
